Key:
[1] = molecular target: T1, TRPV3 (Homo sapiens, UniProt Q8NET8); assay: Whole-cell patch-clamp, carvacrol-evoked TRPV3 current in TRPV3-overexpressing HEK 293T cells; format: cell-based; design: host or cells: NHEK; conditions: 1000 µM carvacrol, −100 mV, at higher concentrations
T1 sequence (Q8NET8 1-790): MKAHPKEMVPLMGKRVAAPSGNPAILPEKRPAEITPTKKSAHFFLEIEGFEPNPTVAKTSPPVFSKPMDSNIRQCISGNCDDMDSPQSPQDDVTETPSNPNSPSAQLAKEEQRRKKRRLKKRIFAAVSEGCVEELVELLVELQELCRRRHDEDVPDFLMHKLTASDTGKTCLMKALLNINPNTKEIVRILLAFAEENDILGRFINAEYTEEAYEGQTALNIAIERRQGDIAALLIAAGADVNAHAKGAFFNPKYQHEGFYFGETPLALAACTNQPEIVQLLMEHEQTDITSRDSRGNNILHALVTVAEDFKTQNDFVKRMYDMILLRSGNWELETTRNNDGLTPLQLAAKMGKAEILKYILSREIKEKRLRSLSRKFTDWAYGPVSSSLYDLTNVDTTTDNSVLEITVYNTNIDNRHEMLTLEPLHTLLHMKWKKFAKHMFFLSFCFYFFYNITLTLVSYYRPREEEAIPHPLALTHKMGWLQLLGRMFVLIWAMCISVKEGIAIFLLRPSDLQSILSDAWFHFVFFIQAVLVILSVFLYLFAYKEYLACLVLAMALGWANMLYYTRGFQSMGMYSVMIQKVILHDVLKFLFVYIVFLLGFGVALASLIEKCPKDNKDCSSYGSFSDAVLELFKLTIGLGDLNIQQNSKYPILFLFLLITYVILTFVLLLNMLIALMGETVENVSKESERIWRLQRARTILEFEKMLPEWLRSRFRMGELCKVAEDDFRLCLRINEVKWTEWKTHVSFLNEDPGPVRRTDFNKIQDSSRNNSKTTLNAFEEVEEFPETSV

[2] = test system: HEK 293T cells expressing the WT TRPV3; assay: in vitro; format: cell-based, human; conditions: 24 h
[3] = molecular target: T2, TRPV4 (Homo sapiens, UniProt Q9HBA0); assay: Whole-cell patch-clamp, GSK101-activated TRPV4 current in transfected HEK 293T cells; format: cell-based
T2 construct: host or cells: HEK 293T (transient transfection)
Protocol: Next, we examined the impact of alpha-mangostin on other TRP channels. TRPV4- and TRPA1 trasfected HEK 293T were activated using 300 nM GSK-1016790A (GSK101) and 100 µM allyl isothiocyanate (AITC), respectively. […] The dose–response curves were obtained by applying various concentrations of alpha-mangostin (Figure 2C).
Figure 2 Alpha-mangostin (α-MG) inhibited the TRPV3 current more effectively than other TRP channels. (A) Representative I–V curves from whole-cell recordings illustrate the inhibitory effect of 0.3 µM alpha-mangostin on TRPV4 and TRPA1 channels (GSK101: GSK-1016790A, a TRPV4 agonist; RR: ruthenium red, a TRP inhibitor; AITC: allyl isothiocyanate, a TRPA1 agonist; A967: A-967079, a TRPA1 inhibitor). Currents were elicited with ramp pulses from −100 to +100 mV over 1 s, which were repetitively applied every 20 s; the holding potential was set at 0 mV. (B) Summary of the inhibition percentage after 0.3 µM alpha-mangostin treatment at −100 mV. […]
In the whole-cell configuration, voltage ramps from −100 to +100 mV over 1 s were applied every 20 s and the holding potential was set at 0 mV. Sampling at 10 kHz and low-pass filtering at 5 kHz (w-c) were applied for all recorded currents. Recorded data were analyzed using Clampfit ver. […]

T2 sequence (Q9HBA0 whole entry, species assumed): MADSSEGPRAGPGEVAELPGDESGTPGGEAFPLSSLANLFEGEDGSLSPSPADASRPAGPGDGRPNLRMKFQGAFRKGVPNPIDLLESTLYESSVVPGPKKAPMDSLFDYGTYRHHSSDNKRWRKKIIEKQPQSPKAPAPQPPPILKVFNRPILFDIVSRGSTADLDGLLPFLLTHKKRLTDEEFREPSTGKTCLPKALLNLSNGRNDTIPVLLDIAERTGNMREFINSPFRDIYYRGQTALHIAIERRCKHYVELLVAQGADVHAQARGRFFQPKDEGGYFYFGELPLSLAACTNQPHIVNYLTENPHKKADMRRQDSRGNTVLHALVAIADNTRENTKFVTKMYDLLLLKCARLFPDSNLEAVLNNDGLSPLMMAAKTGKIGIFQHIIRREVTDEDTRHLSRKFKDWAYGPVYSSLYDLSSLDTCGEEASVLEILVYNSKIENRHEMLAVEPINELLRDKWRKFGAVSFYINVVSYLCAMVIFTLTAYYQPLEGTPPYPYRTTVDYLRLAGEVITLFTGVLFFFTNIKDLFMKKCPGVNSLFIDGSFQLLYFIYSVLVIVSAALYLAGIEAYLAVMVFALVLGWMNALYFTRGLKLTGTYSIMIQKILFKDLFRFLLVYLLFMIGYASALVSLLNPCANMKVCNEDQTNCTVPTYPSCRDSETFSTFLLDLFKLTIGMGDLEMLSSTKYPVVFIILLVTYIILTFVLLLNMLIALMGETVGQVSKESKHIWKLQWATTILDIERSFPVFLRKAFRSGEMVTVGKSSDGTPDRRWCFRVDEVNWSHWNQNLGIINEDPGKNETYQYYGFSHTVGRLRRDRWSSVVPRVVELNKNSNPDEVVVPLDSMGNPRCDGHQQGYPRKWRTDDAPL

COc1c(O)cc2oc3cc(O)c(CC=C(C)C)c(O)c3c(=O)c2c1CC=C(C)C [Alpha-mangostin]
Effect on TRPV3 current induced by carvacrol [1]: suppressed
Increase of viability of cells expressing the WT channel ([2]; 1 µM alone): not statistically significant
Cell viability (normalized O.D., compared with mock cells) ([2]; human, 1 µM): 82.07% ± 1.34
inhibition at 0.3 µM ([3]; HEK-293T, 0.3 µM, 300 nM GSK101, −100 mV, read-out: Inhibition percentage of TRPV4 current): 16.1%
IC50 ([3]; transfected HEK 293T, 300 nM GSK101, read-out: IC50, inhibition of TRPV4 current): 8.47 ± 1.72 µM

Source: paper PMC10455244, “Alpha-Mangostin: A Potent Inhibitor of TRPV3 and Pro-Inflammatory Cytokine Secretion in Keratinocytes” (International Journal of Molecular Sciences, 2023)
